From patent publication US20260285850A1, “SUBSTITUTED OXAZOLIDINONES AND IMIDAZOLINONES AS HERBICIDES” (FMC CORPORATION, priority 2023, published 2026)

How the values were obtained:
Type in all cases: in vivo
[1] = system: palmer (palmer amaranth, palmer pigweed, Amaranthus palmeri); assay: Test A postemergence application, visual injury rating 0-100; settings: for Amaranth, Palmer / Pigweed, Palmer plant response rating (0 to 100 scale): Postemergence
Outline: (§1)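 Greenhouse test: loam/sand pots received a surfactant-containing formulation, as a preemergence directed soil spray or a postemergence spray on young plants. Injury was judged visually at day 10 relative to untreated controls.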

[2] = system: oat, wild (wild oat, Avena fatua); assay: as above; settings: for Oat, Wild plant response rating (0 to 100 scale): Postemergence
Outline: as §1

corn (Zea mays) [3] = assay: as above; settings: for Corn plant response rating (0 to 100 scale): Postemergence
Outline: as §1

[4] = system: galium (catchweed bedstraw, Galium aparine); assay: as above; settings: for Galium plant response rating (0 to 100 scale): Postemergence
Outline: as §1

[5] = system: horseweed (Erigeron canadensis); assay: as above; settings: for Horseweed plant response rating (0 to 100 scale): Postemergence
Outline: as §1

soybean (Glycine max) [6] = assay: as above; settings: for Soybean plant response rating (0 to 100 scale): Postemergence
Outline: as §1

[7] = system: blackgrass (Alopecurus myosuroides); assay: as above; settings: for Blackgrass plant response rating (0 to 100 scale): Postemergence
Outline: as §1

[8] = system: ryegrass, Italian (italian ryegrass, Lolium multiflorum); assay: as above; settings: for Ryegrass, Italian plant response rating (0 to 100 scale): Postemergence
Outline: as §1

[9] = system: wheat (Triticum aestivum); assay: as above; settings: for Wheat plant response rating (0 to 100 scale): Postemergence
Outline: as §1

[10] = system: ragweed (common ragweed, Ambrosia artemisiifolia); assay: as above; settings: for Ragweed plant response rating (0 to 100 scale): Postemergence
Outline: as §1

kochia (Bassia scoparia) [11] = assay: as above; settings: for Kochia plant response rating (0 to 100 scale): Postemergence
Outline: as §1

[12] = system: barnyardgrass (Echinochloa crus-galli); assay: as above; settings: for Barnyardgrass plant response rating (0 to 100 scale): Postemergence
Outline: as §1

[13] = system: barnyardgrass (Echinochloa crusgalli); assay: Test B flooded paddy test, visual plant response rating 0-100; settings: 250 g ai/ha, Flood, applied to paddy water, evaluated after 13 days
Outline: (§2)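 Each species was raised to two leaves before flooding to a 3 cm depth and dosing the water with compound. Injury was assessed by eye after 13 days under greenhouse conditions.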

rice (Oryza sativa) = assay: as above; settings: 250 g ai/ha, Flood, applied to paddy water, evaluated after 13 days
Outline: as §2

[14] = system: ducksalad (Heteranthera limosa); assay: as above; settings: 250 g ai/ha, Flood, applied to paddy water, evaluated after 13 days
Outline: as §2

[15] = system: sedge, umbrella (small-flower umbrella sedge, Cyperus difformis); assay: as above; settings: 250 g ai/ha, Flood, applied to paddy water, evaluated after 13 days
Outline: as §2

[16] = system: palmer (palmer amaranth, palmer pigweed, Amaranthus palmeri); assay: Test A preemergence soil spray, visual injury rating 0-100; settings: 10 days, 0 = no effect, 100 = complete control; for Amaranth, Palmer plant response rating (0-100): 31 g ai/ha; for Amaranth, Palmer plant response rating (0 to 100 scale): 125 g ai/ha
Outline: as §1

[17] = system: oat, wild (wild oat, Avena fatua); assay: as above; settings: 10 days, 0 = no effect, 100 = complete control; for Oat, Wild plant response rating (0-100): 31 g ai/ha; for Oat, Wild plant response rating (0 to 100 scale): 125 g ai/ha
Outline: as §1

corn (Zea mays) [18] = assay: as above; settings: 10 days, 0 = no effect, 100 = complete control; for Corn plant response rating (0-100): 31 g ai/ha; for Corn plant response rating (0 to 100 scale): 125 g ai/ha
Outline: as §1

soybean (Glycine max) [19] = assay: as above; settings: 10 days, 0 = no effect, 100 = complete control; for Soybean plant response rating (0-100): 31 g ai/ha; for Soybean plant response rating (0 to 100 scale): 125 g ai/ha
Outline: as §1

[20] = system: blackgrass (Alopecurus myosuroides); assay: as above; settings: 10 days, 0 = no effect, 100 = complete control; for Blackgrass plant response rating (0-100): 31 g ai/ha; for Blackgrass plant response rating (0 to 100 scale): 125 g ai/ha
Outline: as §1

[21] = system: ryegrass, Italian (italian ryegrass, Lolium multiflorum); assay: as above; settings: 10 days, 0 = no effect, 100 = complete control; for Ryegrass, Italian plant response rating (0-100): 31 g ai/ha; for Ryegrass, Italian plant response rating (0 to 100 scale): 125 g ai/ha
Outline: as §1

[22] = system: wheat (Triticum aestivum); assay: as above; settings: 10 days, 0 = no effect, 100 = complete control; for Wheat plant response rating (0-100): 31 g ai/ha; for Wheat plant response rating (0 to 100 scale): 125 g ai/ha
Outline: as §1

[23] = system: ragweed (common ragweed, Ambrosia artemisiifolia); assay: as above; settings: 10 days, 0 = no effect, 100 = complete control; for Ragweed plant response rating (0-100): 31 g ai/ha; for Ragweed plant response rating (0 to 100 scale): 125 g ai/ha
Outline: as §1

kochia (Bassia scoparia) [24] = assay: as above; settings: 10 days, 0 = no effect, 100 = complete control; for Kochia plant response rating (0-100): 31 g ai/ha; for Kochia plant response rating (0 to 100 scale): 125 g ai/ha
Outline: as §1

[25] = system: barnyardgrass (Echinochloa crus-galli); assay: as above; settings: 10 days, 0 = no effect, 100 = complete control; for Barnyardgrass plant response rating (0-100): 31 g ai/ha; for Barnyardgrass plant response rating (0 to 100 scale): 125 g ai/ha
Outline: as §1

[26] = 31 g ai/ha, postemergence, 10 days, 0 = no effect, 100 = complete control
[27] = 125 g ai/ha, 10 days, 0 is no effect, 100 is complete control
[28] = 31 g ai/ha, greenhouse 10 days, 0 no effect, 100 complete control

What does the source list for `CCOC(=O)C1=CCC(NC(=O)C2(C)CN(c3cc(Cl)cc(Cl)c3)C(=O)O2)C1` (stereo not drawn) [Compound 60]?
Amaranth, Palmer plant response rating (0-100) [1, 26]: 90; Amaranth, Palmer / Pigweed, Palmer plant response rating (0 to 100 scale) [1, 27]: 100; Oat, Wild plant response rating (0-100) [2, 26]: 10; Oat, Wild plant response rating (0 to 100 scale) [2, 27]: 90; Corn plant response rating (0-100) (corn (Zea mays) [3]; [26]): 90; Corn plant response rating (0 to 100 scale) (corn (Zea mays) [3]; [27]): 100; Galium plant response rating (0-100) [4, 26]: 90; Galium plant response rating (0 to 100 scale) [4, 27]: 90; Horseweed plant response rating (0-100) [5, 26]: 70; Horseweed plant response rating (0 to 100 scale) [5, 27]: 90; Soybean plant response rating (0-100) (soybean (Glycine max) [6]; [26]): 90; Soybean plant response rating (0 to 100 scale) (soybean (Glycine max) [6]; [27]): 100; Blackgrass plant response rating (0-100) [7, 26]: 90; Blackgrass plant response rating (0 to 100 scale) [7, 27]: 100; Ryegrass, Italian plant response rating (0-100) [8, 26]: 90; Ryegrass, Italian plant response rating (0 to 100 scale) [8, 27]: 100; Wheat plant response rating (0-100) [9, 26]: 40; Wheat plant response rating (0 to 100 scale) [9, 27]: 90; Ragweed plant response rating (0-100) [10, 26]: 0; Ragweed plant response rating (0 to 100 scale) [10, 27]: 20; Kochia plant response rating (0-100) (kochia (Bassia scoparia) [11]; [26]): 80; Kochia plant response rating (0 to 100 scale) (kochia (Bassia scoparia) [11]; [27]): 80; Barnyardgrass plant response rating (0-100) [12, 26]: 90; Barnyardgrass plant response rating (0 to 100 scale) [12, 27]: 90; Plant response rating, Barnyardgrass (0 to 100 scale, 0 is no effect and 100 is complete control) [13]: 70; Plant response rating, Rice (0 to 100 scale, 0 is no effect and 100 is complete control) (rice (Oryza sativa)): 65; Plant response rating, Ducksalad (0 to 100 scale, 0 is no effect and 100 is complete control) [14]: 95; Plant response rating, Sedge, Umbrella (0 to 100 scale, 0 is no effect and 100 is complete control) [15]: 100; Amaranth, Palmer plant response rating (0-100) [16]: 100; Amaranth, Palmer plant response rating (0 to 100 scale) [16]: 100; Oat, Wild plant response rating (0-100) [17]: 0; Oat, Wild plant response rating (0 to 100 scale) [17]: 20; Corn plant response rating (0-100) (corn (Zea mays) [18]): 0; Corn plant response rating (0 to 100 scale) (corn (Zea mays) [18]): 60; Soybean plant response rating (0-100) (soybean (Glycine max) [19]): 10; Soybean plant response rating (0 to 100 scale) (soybean (Glycine max) [19]): 40; Blackgrass plant response rating (0-100) [20]: 0; Blackgrass plant response rating (0 to 100 scale) [20]: 50; Ryegrass, Italian plant response rating (0-100) [21]: 60; Ryegrass, Italian plant response rating (0 to 100 scale) [21]: 90; Wheat plant response rating (0-100) [22]: 20; Wheat plant response rating (0 to 100 scale) [22]: 80; Ragweed plant response rating (0-100) [23]: 30; Ragweed plant response rating (0 to 100 scale) [23]: 60; Kochia plant response rating (0-100) (kochia (Bassia scoparia) [24]): 40; Kochia plant response rating (0 to 100 scale) (kochia (Bassia scoparia) [24]): 90; Barnyardgrass plant response rating (0-100) [25]: 60; Barnyardgrass plant response rating (0 to 100 scale) [25]: 100

Which results are given for `CC1(C(=O)NC2C=CC(C(=O)ON=Cc3ccccc3)C2)CN(c2cc(F)cc(F)c2)C(=O)O1` (stereo not drawn) [Compound 68]?
Amaranth, Palmer / Pigweed, Palmer plant response rating (0 to 100 scale) [1, 28]: 90; Amaranth, Palmer / Pigweed, Palmer plant response rating (0 to 100 scale) [1, 27]: 90; Oat, Wild plant response rating (0 to 100 scale) [2, 28]: 30; Oat, Wild plant response rating (0 to 100 scale) [2, 27]: 90; Corn plant response rating (0 to 100 scale) (corn (Zea mays) [3]; [28]): 80; Corn plant response rating (0 to 100 scale) (corn (Zea mays) [3]; [27]): 100; Galium plant response rating (0 to 100 scale) [4, 28]: 90; Galium plant response rating (0 to 100 scale) [4, 27]: 90; Horseweed plant response rating (0 to 100 scale) [5, 28]: 50; Horseweed plant response rating (0 to 100 scale) [5, 27]: 90; Soybean plant response rating (0 to 100 scale) (soybean (Glycine max) [6]; [28]): 90; Soybean plant response rating (0 to 100 scale) (soybean (Glycine max) [6]; [27]): 100; Blackgrass plant response rating (0 to 100 scale) [7, 28]: 70; Blackgrass plant response rating (0 to 100 scale) [7, 27]: 90; Ryegrass, Italian plant response rating (0 to 100 scale) [8, 28]: 90; Ryegrass, Italian plant response rating (0 to 100 scale) [8, 27]: 100; Wheat plant response rating (0 to 100 scale) [9, 28]: 80; Wheat plant response rating (0 to 100 scale) [9, 27]: 90; Ragweed plant response rating (0 to 100 scale) [10, 28]: 0; Ragweed plant response rating (0 to 100 scale) [10, 27]: 80; Kochia plant response rating (0 to 100 scale) (kochia (Bassia scoparia) [11]; [28]): 80; Kochia plant response rating (0 to 100 scale) (kochia (Bassia scoparia) [11]; [27]): 90; Barnyardgrass plant response rating (0 to 100 scale) [12, 28]: 90; Barnyardgrass plant response rating (0 to 100 scale) [12, 27]: 90; Plant response rating, Barnyardgrass (0 to 100 scale, 0 is no effect and 100 is complete control) [13]: 85; Plant response rating, Rice (0 to 100 scale, 0 is no effect and 100 is complete control) (rice (Oryza sativa)): 40; Plant response rating, Ducksalad (0 to 100 scale, 0 is no effect and 100 is complete control) [14]: 95; Plant response rating, Sedge, Umbrella (0 to 100 scale, 0 is no effect and 100 is complete control) [15]: 98; Amaranth, Palmer plant response rating (0-100) [16]: 100; Amaranth, Palmer plant response rating (0 to 100 scale) [16]: 100; Oat, Wild plant response rating (0-100) [17]: 60; Oat, Wild plant response rating (0 to 100 scale) [17]: 90; Corn plant response rating (0-100) (corn (Zea mays) [18]): 0; Corn plant response rating (0 to 100 scale) (corn (Zea mays) [18]): 80; Soybean plant response rating (0-100) (soybean (Glycine max) [19]): 0; Soybean plant response rating (0 to 100 scale) (soybean (Glycine max) [19]): 70; Blackgrass plant response rating (0-100) [20]: 50; Blackgrass plant response rating (0 to 100 scale) [20]: 70; Ryegrass, Italian plant response rating (0-100) [21]: 70; Ryegrass, Italian plant response rating (0 to 100 scale) [21]: 80; Wheat plant response rating (0-100) [22]: 80; Wheat plant response rating (0 to 100 scale) [22]: 90; Ragweed plant response rating (0-100) [23]: 0; Ragweed plant response rating (0 to 100 scale) [23]: 20; Kochia plant response rating (0-100) (kochia (Bassia scoparia) [24]): 80; Kochia plant response rating (0 to 100 scale) (kochia (Bassia scoparia) [24]): 90; Barnyardgrass plant response rating (0-100) [25]: 90; Barnyardgrass plant response rating (0 to 100 scale) [25]: 100
